In patent US8119624B2, “Fused phenyl amido heterocyclic compounds” (Pfizer Inc., priority 2006, dated 2012):

Target: T1, Full-length glucokinase (beta cell isoform) (Homo sapiens, UniProt P35557)
T1 construct: Full-length glucokinase (beta cell isoform) was His-tagged at N-terminus; His tag (N); made in house
T1 sequence (P35557 1-465): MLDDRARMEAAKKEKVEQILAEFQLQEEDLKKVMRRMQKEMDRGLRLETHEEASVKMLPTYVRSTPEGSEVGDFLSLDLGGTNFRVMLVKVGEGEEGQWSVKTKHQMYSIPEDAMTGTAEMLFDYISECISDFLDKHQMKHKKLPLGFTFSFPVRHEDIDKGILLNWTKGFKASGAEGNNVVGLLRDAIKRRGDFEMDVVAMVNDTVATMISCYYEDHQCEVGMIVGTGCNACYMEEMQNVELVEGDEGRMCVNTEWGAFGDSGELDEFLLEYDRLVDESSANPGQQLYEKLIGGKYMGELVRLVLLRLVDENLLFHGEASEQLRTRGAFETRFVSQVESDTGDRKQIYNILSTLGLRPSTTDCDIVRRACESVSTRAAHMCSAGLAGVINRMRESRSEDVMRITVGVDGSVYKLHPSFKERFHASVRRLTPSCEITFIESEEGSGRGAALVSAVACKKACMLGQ
Test: Glucokinase biochemical assay (PK/LDH-coupled, NADH depletion at 340 nm): % activation, EC50, % max activation
Details: 5 mM glucose; for activation at 10 µM: 10 uM compound, % Activation=(Va/Vo−1)×100, read-out: % Activation at 10 uM; for EC50: GK activation, read-out: EC50; for Emax: fitted maximum activation, read-out: % Max Activation
In short: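 N-terminally His-tagged full-length human beta-cell glucokinase, room temperature, 5 mM glucose, 1 mM ATP, PK/LDH-coupled with 0.7 mM NADH, 1% DMSO final. Initial velocity from the 200–900 s slope of A340 decline. % activation = (Va/Vo−1)×100, measured across compound concentrations.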

Cn1ncc(NC(=O)c2cc(Oc3ccc(S(=O)(=O)C4CC4)c(F)c3)c3c(c2)OC(C)(C)C3)n1 [Example 140, 4-(4-Cyclopropanesulfonyl-3-fluoro-phenoxy)-2,2-dimethyl-2,3-dihydro-benzofuran-6-carboxylic acid (2-methyl-2H-[1,2,3]triazol-4-yl)-amide]
activation at 10 µM: 196%
EC50: 170 nM
Emax: 236%

Cn1ccc(NC(=O)c2cc(Oc3ccc(S(=O)(=O)C4CC4)c(F)c3)c3c(c2)OC(C)(C)C3)n1 [Example 141, 4-(4-Cyclopropanesulfonyl-3-fluoro-phenoxy)-2,2-dimethyl-2,3-dihydro-benzofuran-6-carboxylic acid (1-methyl-1H-pyrazol-3-yl)-amide]
activation at 10 µM: 173%
EC50: 110 nM
Emax: 216%

CN(C)C(=O)c1ccc(Oc2cc(C(=O)Nc3cnn(C)n3)cc3c2CC(C)(C)O3)cc1F [Example 142, 4-(4-Dimethylcarbamoyl-3-fluoro-phenoxy)-2,2-dimethyl-2,3-dihydro-benzofuran-6-carboxylic acid (2-methyl-2H-[1,2,3]triazol-4-yl)-amide]
activation at 10 µM: 145%
EC50: 52.8 nM
Emax: 130%

Cc1cc(NC(=O)c2cc(Oc3ccc(C(=O)N(C)C)c(F)c3)c3c(c2)OC(C)(C)C3)no1 [Example 143, 4-(4-Dimethylcarbamoyl-3-fluoro-phenoxy)-2,2-dimethyl-2,3-dihydro-benzofuran-6-carboxylic acid (5-methyl-isoxazol-3-yl)-amide]
activation at 10 µM: 47.8%
EC50: 179 nM
Emax: 50%

CN(C)C(=O)c1ccc(Oc2cc(C(=O)Nc3ccon3)cc3c2CC(C)(C)O3)cc1F [Example 144, 4-(4-Dimethylcarbamoyl-3-fluoro-phenoxy)-2,2-dimethyl-2,3-dihydro-benzofuran-6-carboxylic acid isoxazol-3-ylamide]
activation at 10 µM: 103%
EC50: 269 nM
Emax: 100%

CN(C)C(=O)c1ccc(Oc2cc(C(=O)Nc3ccc(CO)cn3)cc3c2CC(C)(C)O3)cc1F [Example 145, 4-(4-Dimethylcarbamoyl-3-fluoro-phenoxy)-2,2-dimethyl-2,3-dihydro-benzofuran-6-carboxylic acid (5-hydroxymethyl-pyridin-2-yl)-amide]
activation at 10 µM: 47.2%
EC50: 72.7 nM
Emax: 46.5%

CN(C)C(=O)c1ccc(Oc2cc(C(=O)Nc3ccc(C(N)=O)cn3)cc3c2CC(C)(C)O3)cc1F [Example 146, 6-{[4-(4-Dimethylcarbamoyl-3-fluoro-phenoxy)-2,2-dimethyl-2,3-dihydro-benzofuran-6-carbonyl]-amino}-nicotinamide]
activation at 10 µM: 25.1%

CN(C)C(=O)c1ccc(Oc2cc(C(=O)Nc3ccc(CNC4CC4)cn3)cc3c2CC(C)(C)O3)cc1F [Example 147, 4-(4-Dimethylcarbamoyl-3-fluoro-phenoxy)-2,2-dimethyl-2,3-dihydro-benzofuran-6-carboxylic acid (5-cyclopropylaminomethyl-pyridin-2-yl)-amide]
activation at 10 µM: 35%

Cc1ccc(NC(=O)c2cc(Oc3ccc(C(=O)N(C)C)c(F)c3)c3c(c2)OC(C)(C)C3)nc1 [Example 148, 4-(4-Dimethylcarbamoyl-3-fluoro-phenoxy)-2,2-dimethyl-2,3-dihydro-benzofuran-6-carboxylic acid (5-methyl-pyridin-2-yl)-amide]
activation at 10 µM: 49.5%
EC50: 42.8 nM
Emax: 53%

CN(C)C(=O)c1ccc(Oc2cc(C(=O)Nc3ccn(C)n3)cc3c2CC(C)(C)O3)cc1 [Example 149, 4-(4-Dimethylcarbamoyl-phenoxy)-2,2-dimethyl-2,3-dihydro-benzofuran-6-carboxylic acid (1-methyl-1H-pyrazol-3-yl)-amide]
activation at 10 µM: 105%
EC50: 120 nM
Emax: 104%

Cc1ccc(NC(=O)c2cc(Oc3ccc(C(=O)N(C)C)cc3)c3c(c2)OC(C)(C)C3)nc1 [Example 150, 4-(4-Dimethylcarbamoyl-phenoxy)-2,2-dimethyl-2,3-dihydro-benzofuran-6-carboxylic acid (5-methyl-pyridin-2-yl)-amide]
activation at 10 µM: 39.1%
EC50: 110 nM
Emax: 55%

CN(C)C(=O)c1ccc(Oc2cc(C(=O)Nc3cnccn3)cc3c2CC(C)(C)O3)cc1 [Example 151, 4-(4-Dimethylcarbamoyl-phenoxy)-2,2-dimethyl-2,3-dihydro-benzofuran-6-carboxylic acid pyrazin-2-ylamide]
activation at 10 µM: 98.1%
EC50: 470 nM
Emax: 97%

CN(C)C(=O)c1ccc(Oc2cc(C(=O)Nc3cc[nH]n3)cc3c2CC(C)(C)O3)cc1 [Example 152, 4-(4-Dimethylcarbamoyl-phenoxy)-2,2-dimethyl-2,3-dihydro-benzofuran-6-carboxylic acid (1H-pyrazol-3-yl)-amide]
activation at 10 µM: 90.7%
EC50: 850 nM
Emax: 98%

CN(C)C(=O)c1ccc(Oc2cc(C(=O)Nc3cnn(C)n3)cc3c2CC(C)(C)O3)cc1 [Example 153, 4-(4-Dimethylcarbamoyl-phenoxy)-2,2-dimethyl-2,3-dihydro-benzofuran-6-carboxylic acid (2-methyl-2H-[1,2,3]triazol-4-yl)-amide]
activation at 10 µM: 168%
EC50: 150 nM
Emax: 161%

Cc1cc(NC(=O)c2cc(Oc3ccc(C(=O)N(C)C)cc3)c3c(c2)OC(C)(C)C3)no1 [Example 154, 4-(4-Dimethylcarbamoyl-phenoxy)-2,2-dimethyl-2,3-dihydro-benzofuran-6-carboxylic acid (5-methyl-isoxazol-3-yl)-amide]
activation at 10 µM: 36.3%
EC50: 4000 nM
Emax: 54%

CN(C)C(=O)c1ccc(Oc2cc(C(=O)Nc3ccc(CO)cn3)cc3c2CC(C)(C)O3)cc1 [Example 155, 4-(4-Dimethylcarbamoyl-phenoxy)-2,2-dimethyl-2,3-dihydro-benzofuran-6-carboxylic acid (5-hydroxymethyl-pyridin-2-yl)-amide]
activation at 10 µM: 38.4%
EC50: 90 nM
Emax: 43%

CN(C)C(=O)c1ccc(Oc2cc(C(=O)Nc3ccncn3)cc3c2CC(C)(C)O3)cc1 [Example 156, 4-(4-Dimethylcarbamoyl-phenoxy)-2,2-dimethyl-2,3-dihydro-benzofuran-6-carboxylic acid pyrimidin-4-ylamide]
activation at 10 µM: 52%
EC50: 460 nM
Emax: 49%

CN(C)C(=O)c1ccc(Oc2cc(C(=O)Nc3ccccn3)cc3c2CC(C)(C)O3)cc1 [Example 157, 4-(4-Dimethylcarbamoyl-phenoxy)-2,2-dimethyl-2,3-dihydro-benzofuran-6-carboxylic acid pyridin-2-ylamide]
activation at 10 µM: 69.2%
EC50: 190 nM
Emax: 71%

CN(C)C(=O)c1ccc(Oc2cc(C(=O)Nc3ccon3)cc3c2CC(C)(C)O3)cc1 [Example 158, 4-(4-Dimethylcarbamoyl-phenoxy)-2,2-dimethyl-2,3-dihydro-benzofuran-6-carboxylic acid isoxazol-3-ylamide]
activation at 10 µM: 115%
EC50: 470 nM
Emax: 106%

Cn1ncc(NC(=O)c2cc(Oc3ccc(C(=O)N4CCC4)c(F)c3)c3c(c2)OC(C)(C)C3)n1 [Example 159, 4-[4-(Azetidine-1-carbonyl)-3-fluoro-phenoxy]-2,2-dimethyl-2,3-dihydro-benzofuran-6-carboxylic acid (2-methyl-2H-[1,2,3]triazol-4-yl)-amide]
activation at 10 µM: 243%
EC50: 150 nM
Emax: 260%

Cn1ncc(NC(=O)c2cc(Oc3ccc(C(=O)N4CCC4)cc3)c3c(c2)OC(C)(C)C3)n1 [Example 160, 4-[4-(Azetidine-1-carbonyl)-phenoxy]-2,2-dimethyl-2,3-dihydro-benzofuran-6-carboxylic acid (2-methyl-2H-[1,2,3]triazol-4-yl)-amide]
activation at 10 µM: 298%
EC50: 130 nM
Emax: 250%

CN(C)C(=O)c1ccc(Oc2cc(C(=O)Nc3ccn(C)n3)cc3c2CC(C)(C)O3)cn1 [Example 161, 5-[2,2-Dimethyl-6-(1-methyl-1H-pyrazol-3-ylcarbamoyl)-2,3-dihydro-benzofuran-4-yloxy]-pyridine-2-carboxylic acid dimethylamide]
activation at 10 µM: 191%
EC50: 175 nM
Emax: 143%

CN(C)C(=O)c1ccc(Oc2cc(C(=O)Nc3ccn(C)n3)cc3c2CC(C)(C)O3)nc1 [Example 162, 6-[2,2-Dimethyl-6-(1-methyl-1H-pyrazol-3-ylcarbamoyl)-2,3-dihydro-benzofuran-4-yloxy]-N,N-dimethyl-nicotinamide]
activation at 10 µM: 105%
EC50: 1600 nM
Emax: 135%

Cn1ccc(NC(=O)c2cc(Oc3ccc(C(=O)Nc4ccn(C)n4)nc3)c3c(c2)OC(C)(C)C3)n1 [Example 163, 5-[2,2-Dimethyl-6-(1-methyl-1H-pyrazol-3-ylcarbamoyl)-2,3-dihydro-benzofuran-4-yloxy]-pyridine-2-carboxylic acid (1-methyl-1H-pyrazol-3-yl)-amide]
activation at 10 µM: 118%
EC50: 440 nM
Emax: 137%
